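48-hour exposure; five concentrations; linearly interpolated endpoints. Abbreviation: GI50, concentration required for 50% inhibition of growth. Definition used: TGI = concentration required for complete inhibition of growth.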
What was measured:
Test in all cases: NCI-60 cell line screen, 48 h
[1] = system: 786-0 renal
[2] = system: CCRF-CEM leukemia
[3] = system: HT29 colon
[4] = system: IGROV1 ovarian
[5] = system: MDA-MB-435
[6] = system: NCI-H460 lung
[7] = system: OVCAR-4 ovarian
[8] = system: SF-295 CNS
[9] = system: SNB-19 CNS
[10] = system: SW-620 colon

Row | SMILES | GI50 [1] [µM] | TGI [1] [µM] | GI50 [2] [µM] | TGI [2] [µM] | GI50 [3] [µM] | TGI [3] [µM] | GI50 [4] [µM] | TGI [4] [µM] | GI50 [5] [µM] | TGI [5] [µM] | GI50 [6] [µM] | TGI [6] [µM] | GI50 [7] [µM] | TGI [7] [µM] | GI50 [8] [µM] | TGI [8] [µM] | GI50 [9] [µM] | TGI [9] [µM] | GI50 [10] [µM] | TGI [10] [µM]
1 | C=C1CC[C@@H]2[C@](C)(COC(C)=O)[C@@H](O)CC[C@@]2(C)[C@@H]1COc1ccc2ccc(=O)oc2c1 | 31 | > 100 | > 100 | > 100 | > 100 | > 100 | > 100 | > 100 | > 100 | > 100 | > 100 | > 100 | > 100 | > 100 | 25.9 | 79.1 | > 100 | > 100 | > 100 | > 100
2 | C/C(=N\Nc1ccc2ccccc2n1)c1ccccn1 | 0.1 | 1.69 |  | 0.0284 | < 0.0407 | 3.09 |  | 0.979 | 0.223 | 8.09 | < 0.0507 | 3.71 | < 0.0204 | 33.5 |  | 0.636 | 0.198 | 14.3 |  | 5.67
3 | O=C1C(=O)c2c(nc3ccc(Cl)cn23)-c2ccccc21 | 0.775 | 1.82 | 0.411 | 3.68 | 3.26 | 19.8 | 0.646 |  | 0.183 | 0.35 | 0.538 | 2.31 | 0.207 | 0.463 | 1.52 | 3.13 | 1.32 | 3 | 0.292 | 1.03
4 | C=CC(=O)N1CCN(c2ccc3cccc(NC(=O)c4cnc(C)cn4)c3n2)CC1 | 1.77 | > 100 | 2.08 | 8.29 | 4.05 | > 100 | 1.29 | 15.2 | 3.67 | 32.9 | 2.51 | 19.7 | 2.66 | > 100 | 13.5 | > 100 | 5.38 | > 100 | 4.85 | 34.9
5 | C=CC(=O)Nc1cccc(C)c1Nc1cc(-c2cccnc2Cc2c(C)c(OC)cc(OC)c2C)ncn1 | 10.2 | 39.6 | 8.26 | > 100 | 20.3 | > 100 | 14.2 | 53.9 | 12.1 | 31.3 | 4.91 | 31.7 | 20.6 | > 100 | 6.47 | 73.9 | 7.04 | 43.1 | 10.7 | 41.7
6 | N=C(N)c1ccc(N2CCCN(c3ccc(C(=N)N)cc3)CC2)cc1 | > 100 | > 100 | > 100 | > 100 | 74.5 | > 100 | > 100 | > 100 | > 100 | > 100 | 50.6 | > 100 | > 100 | > 100 | 32.6 | > 100 | 48.7 | > 100 | > 100 | > 100
7 | O[C@H]1CO[C@H]2[C@@H]1OC[C@@H]2Oc1ccc(Nc2ccnc(Nc3ccc(O[C@H]4CO[C@H]5[C@@H]4OC[C@@H]5O)c(Cl)c3)n2)cc1Cl | 2.98 | 15.1 | 0.666 | 5.31 | 2.48 | 15.4 | 0.757 | 6.08 | 2.31 | 10 | 1.4 | 3.05 | 1.54 | 5.24 | 1.65 | 3.22 | 2.75 | 7.98 | 2.36 | 6.86
8 | O=C(c1ccccc1)C(CN1CCOCC1)c1ccccc1 (stereo not given) | 2.72 | 6.93 | 0.283 | 1.19 | 0.501 | 1.89 | 1.75 | 4.24 | 1.35 | 3.36 | 2.51 | 7.76 | 3.88 | 19.3 | 2.67 | 10.4 | 3.76 | 15.6 | 0.372 | 1.28
9 | COc1cccc(NC(=O)c2sc3nc4c(cc3c2N)CN(Cc2ccccc2)CC4)c1 | 3.61 | 20.8 | 29.5 | > 100 | 3.75 | 15.2 | 18.5 | > 100 | 0.296 | 11 | 4.18 | 30.9 | 2.68 | 19.7 | 3.05 | 19.4 | 4.75 | > 100 | 1.85 | 72.2
10 | CN(C)CCCN1c2ccccc2CCc2ccc(Cl)cc21 | 5.5 | 19.2 | 3.07 | 12 | 3.38 | 11.6 | 7.09 | 22 | 2.35 | 6.91 | 4.46 | 19.1 | 3.64 | 16.4 | 3.51 | 14.8 | 6.42 | 21.5 | 3.92 | 16
11 | Cc1ccc(C2=NOC3=c4ccccc4=CSC3=C2c2ccc([N+](=O)[O-])cc2)cc1 | 0.58 | 72.5 | 39.3 | > 100 | > 100 | > 100 | 14.2 | > 100 | 57.9 | > 100 | 16.9 | > 100 | 95.6 | > 100 | 13.3 | 49.9 | 17.6 | 63.7 | 62.3 | > 100
12 | COc1ccc(C(OCC2OC(n3ccc(NC(=O)c4ccccc4)nc3=O)C(O)C2O)(c2ccccc2)c2ccccc2)cc1 (stereo not given) |  | 3.69 |  | 4.39 |  | 3.04 |  | 3.86 |  | 5.73 |  | 4.02 |  | 6.04 |  | 3.49 |  | 9 |  | 5.8

From PubChem BioAssay (NCI)
